According to PubChem BioAssay AID248 (DTP/NCI, 2004):
Inconclusive results and toxic doses are left out.

Test system: L1210 leukemia ip in BDF1 mice, survival T/C
Experiment: NCI In Vivo Anticancer Drug Screen. Data for tumor model L1210 Leukemia (intraperitoneal) in B6D2F1 (BDF1) mice
Details: endpoint: mean survival time, higher = longer survival
Outline: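 Tumor cells were implanted, animals were treated, and survival was followed. The result divides the treated measurement by the vehicle-control measurement.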

[1] = dose: 100.0 mg/kg/injection, schedule: Q01DX009 (ip), vehicle: Klucel (hydroxypropylcellulose) (HPC)
[2] = dose: 100.0 mg/kg/injection, schedule: Q04DX003 (ip), vehicle: Klucel (hydroxypropylcellulose) (HPC)
[3] = dose: 200.0 mg/kg/injection, schedule: Q01DX009 (ip), vehicle: Klucel (hydroxypropylcellulose) (HPC)
[4] = dose: 200.0 mg/kg/injection, schedule: Q04DX003 (ip), vehicle: Klucel (hydroxypropylcellulose) (HPC)
[5] = dose: 400.0 mg/kg/injection, schedule: Q01DX009 (ip), vehicle: Klucel (hydroxypropylcellulose) (HPC)
[6] = dose: 400.0 mg/kg/injection, schedule: Q04DX003 (ip), vehicle: Klucel (hydroxypropylcellulose) (HPC)
[7] = dose: 100.0 mg/kg/injection, schedule: Q01DX009 (ip), vehicle: saline
[8] = dose: 100.0 mg/kg/injection, schedule: Q04DX003 (ip), vehicle: saline
[9] = dose: 200.0 mg/kg/injection, schedule: Q01DX009 (ip), vehicle: saline
[10] = dose: 200.0 mg/kg/injection, schedule: Q04DX003 (ip), vehicle: saline
[11] = dose: 400.0 mg/kg/injection, schedule: Q01DX009 (ip), vehicle: saline
[12] = dose: 400.0 mg/kg/injection, schedule: Q04DX003 (ip), vehicle: saline
[13] = dose: 100.0 mg/kg/injection, schedule: Q04DX002 (ip), vehicle: saline with Tween-80
[14] = dose: 200.0 mg/kg/injection, schedule: Q04DX002 (ip), vehicle: saline with Tween-80
[15] = dose: 400.0 mg/kg/injection, schedule: Q04DX002 (ip), vehicle: saline with Tween-80
[16] = dose: 100.0 mg/kg/injection, schedule: Q01DX001 (ip), vehicle: carboxymethylcellulose (CMC)
[17] = dose: 200.0 mg/kg/injection, schedule: Q01DX001 (ip), vehicle: carboxymethylcellulose (CMC)
[18] = dose: 400.0 mg/kg/injection, schedule: Q01DX001 (ip), vehicle: carboxymethylcellulose (CMC)
[19] = dose: 100.0 mg/kg/injection, schedule: Q04DX003 (ip), vehicle: saline with Tween-80
[20] = dose: 200.0 mg/kg/injection, schedule: Q04DX003 (ip), vehicle: saline with Tween-80
[21] = dose: 400.0 mg/kg/injection, schedule: Q04DX003 (ip), vehicle: saline with Tween-80
[22] = dose: 100.0 mg/kg/injection, schedule: Q01DX001 (ip), vehicle: saline
[23] = dose: 200.0 mg/kg/injection, schedule: Q01DX001 (ip), vehicle: saline
[24] = dose: 400.0 mg/kg/injection, schedule: Q01DX001 (ip), vehicle: saline
[25] = dose: 100.0 mg/kg/injection, schedule: Q01DX001 (ip), vehicle: Klucel (hydroxypropylcellulose) (HPC)
[26] = dose: 200.0 mg/kg/injection, schedule: Q01DX001 (ip), vehicle: Klucel (hydroxypropylcellulose) (HPC)
[27] = dose: 400.0 mg/kg/injection, schedule: Q01DX001 (ip), vehicle: Klucel (hydroxypropylcellulose) (HPC)

With `CCCCCCCC[Se](=O)O` the T/C (dose: 5.0 mg/kg/injection, schedule: Q01DX001 (ip), vehicle: carboxymethylcellulose (CMC)) was 95 % of control, the T/C (dose: 10.0 mg/kg/injection, schedule: Q01DX001 (ip), vehicle: carboxymethylcellulose (CMC)) was 109 % of control and the T/C (dose: 20.0 mg/kg/injection, schedule: Q01DX001 (ip), vehicle: carboxymethylcellulose (CMC)) was 109 % of control.
For `[Tl][CH]1C=CC=C1`, the T/C (dose: 100.0 mg/kg/injection, schedule: Q01DX001 (ip), vehicle: acetone) was 93 % of control.
For `O=C(O)C1C(C(=O)O)C2(c3ccccc3)c3ccccc3C12` (stereo not drawn), the T/C (dose: 9.38 mg/kg/injection, schedule: Q01DX001 (ip), vehicle: other) was 92 % of control, the T/C (dose: 18.75 mg/kg/injection, schedule: Q01DX001 (ip), vehicle: other) was 92 % of control and the T/C (dose: 37.5 mg/kg/injection, schedule: Q01DX001 (ip), vehicle: other) was 102 % of control.
For `Clc1cc(Cl)c2nc(Cl)c3ccccc3c2c1`, the T/C [1] was 100 % of control, the T/C [2] was 95 % of control and the T/C [3] was 92 % of control. For the same molecule, the T/C [4] was 90 % of control, the T/C [5] was 100 % of control and the T/C [6] was 93 % of control.
For `Cc1cccc(Nc2c3ccccc3nc3ccccc23)c1`, the T/C (dose: 25.0 mg/kg/injection, schedule: Q01DX001 (ip), vehicle: saline with Tween-80) was 97 % of control, the T/C (dose: 50.0 mg/kg/injection, schedule: Q01DX001 (ip), vehicle: saline with Tween-80) was 100 % of control and the T/C (dose: 100.0 mg/kg/injection, schedule: Q01DX001 (ip), vehicle: saline with Tween-80) was 104 % of control.
`CCCCCCCCCCCCC(O)C(O)CCCCCCCC(=O)O` (stereo not drawn) was tested, and the T/C [1] was 94 % of control, the T/C [3] was 93 % of control and the T/C [5] was 93 % of control.
For `CC(NC(=O)C(F)(F)F)C(=O)O` (stereo not drawn), the T/C [7] was 92 % of control, the T/C [8] was 103 % of control and the T/C [9] was 95 % of control. For the same molecule, the T/C [10] was 93 % of control, the T/C [11] was 113 % of control and the T/C [12] was 97 % of control.
For `O[Si](O)(c1ccccc1)c1ccccc1`, the T/C [13] was 92 % of control, the T/C [14] was 87 % of control and the T/C [15] was 92 % of control.
`NC(=O)Nc1cc(NC(N)=O)cc([N+](=O)[O-])c1` was tested, and the T/C [7] was 95 % of control, the T/C [8] was 110 % of control and the T/C [9] was 88 % of control. The T/C [10] was 104 % of control, the T/C [11] was 93 % of control and the T/C [12] was 110 % of control.
In the case of `CCC(CC)NCC(C)O` (stereo not drawn), the T/C (dose: 75.0 mg/kg/injection, schedule: Q01DX001 (ip), vehicle: saline) is reported as 105 % of control, the T/C (dose: 150.0 mg/kg/injection, schedule: Q01DX001 (ip), vehicle: saline) is reported as 108 % of control and the T/C (dose: 300.0 mg/kg/injection, schedule: Q01DX001 (ip), vehicle: saline) is reported as 102 % of control.
For `BrCCN(CCBr)c1ccc2c3c(cccc13)-c1ccccc1-2`, the T/C (dose: 0.3 mg/kg/injection, schedule: Q01DX Z (ip), vehicle: other) was 117 % of control, the T/C (dose: 0.7 mg/kg/injection, schedule: Q01DX Z (ip), vehicle: other) was 120 % of control and the T/C (dose: 1.5 mg/kg/injection, schedule: Q01DX Z (ip), vehicle: other) was 123 % of control. The T/C (dose: 6.25 mg/kg/injection, schedule: Q01DX009 (ip), vehicle: acetone) was 112 % of control, the T/C (dose: 7.5 mg/kg/injection, schedule: Q01DX Z (ip), vehicle: other) was 101 % of control and the T/C (dose: 11.0 mg/kg/injection, schedule: Q01DX Z (ip), vehicle: other) was 112 % of control. The T/C (dose: 50.0 mg/kg/injection, schedule: Q01DX001 (ip), vehicle: carboxymethylcellulose (CMC)) was 124 % of control, the T/C [16] was 114 % of control and the T/C [8] was 120 % of control. The T/C [17] was 124 % of control and the T/C [18] was 120 % of control.
In the case of `CC#CCCC(=O)OCCC`, the T/C [13] is reported as 121 % of control, the T/C [14] is reported as 93 % of control and the T/C [15] is reported as 108 % of control.
In the case of `C[N+]1(C)C2CCCCC1CC(=O)C2`, the T/C (dose: 10.0 mg/kg/injection, schedule: Q01DX001 (ip), vehicle: saline) is reported as 96 % of control, the T/C (dose: 20.0 mg/kg/injection, schedule: Q01DX001 (ip), vehicle: saline) is reported as 98 % of control and the T/C (dose: 40.0 mg/kg/injection, schedule: Q01DX001 (ip), vehicle: saline) is reported as 95 % of control.
In the case of `O=C1c2ccccc2C(=O)c2c1ccc1nc(Cl)c(=O)[nH]c21`, the T/C [16] is reported as 93 % of control, the T/C [17] is reported as 95 % of control and the T/C [18] is reported as 100 % of control.
`O=C(CC(O)(C(F)(F)F)C(F)(F)F)c1cc(Cl)ccc1Cl` was tested, and the T/C [19] was 112 % of control, the T/C [20] was 105 % of control and the T/C [21] was 103 % of control.
With `O=C(O)C(c1ccccc1)S(=O)(=O)C(C(=O)O)c1ccccc1` (stereo not drawn) the T/C [22] was 95 % of control, the T/C [23] was 101 % of control and the T/C [24] was 95 % of control.
In the case of `O=C1CCNc2cc(Cl)ccc21`, the T/C [25] is reported as 96 % of control, the T/C [1] is reported as 98 % of control and the T/C [26] is reported as 95 % of control. For the same molecule, the T/C [3] was 95 % of control and the T/C [27] was 104 % of control.
In the case of `Cc1cc(C2C(O)C(c3cc(C)on3)C2(C)O)no1` (stereo not drawn), the T/C [25] is reported as 98 % of control, the T/C [2] is reported as 103 % of control and the T/C [26] is reported as 98 % of control. The T/C [4] was 97 % of control, the T/C [27] was 97 % of control and the T/C [6] was 103 % of control.
For `O=NN(CCCl)C(=O)Nc1ccc(Cn2cnc3c(=O)[nH]cnc32)cc1`, the T/C (dose: 5.0 mg/kg/injection, schedule: Q01DX009 (ip), vehicle: other) was 150 % of control, the T/C (dose: 7.0 mg/kg/injection, schedule: Q01DX009 (ip), vehicle: other) was 155 % of control and the T/C (dose: 14.0 mg/kg/injection, schedule: Q01DX009 (ip), vehicle: other) was 162 % of control. For the same molecule, the T/C (dose: 18.0 mg/kg/injection, schedule: Q01DX001 (ip), vehicle: other) was 161 % of control, the T/C (dose: 28.0 mg/kg/injection, schedule: Q01DX009 (ip), vehicle: other) was 88 % of control and the T/C (dose: 31.0 mg/kg/injection, schedule: Q01DX001 (ip), vehicle: other) was 155 % of control. For the same molecule, the T/C (dose: 36.0 mg/kg/injection, schedule: Q01DX001 (ip), vehicle: other) was 185 % of control, the T/C (dose: 45.0 mg/kg/injection, schedule: Q01DX001 (ip), vehicle: other) was 196 % of control and the T/C (dose: 46.0 mg/kg/injection, schedule: Q01DX001 (ip), vehicle: other) was 169 % of control. The T/C (dose: 62.0 mg/kg/injection, schedule: Q01DX001 (ip), vehicle: other) was 169 % of control, the T/C (dose: 63.0 mg/kg/injection, schedule: Q01DX001 (ip), vehicle: other) was 164 % of control and the T/C (dose: 125.0 mg/kg/injection, schedule: Q01DX001 (ip), vehicle: other) was 101 % of control.
`Nc1cccc(C(=O)Nc2cccc(S(=O)(=O)F)c2)c1` was tested, and the T/C [22] was 95 % of control, the T/C [23] was 98 % of control and the T/C [24] was 104 % of control.
`C=CCc1cc(CN(CCOCC)Cc2cc(CC=C)cc(OC)c2O)c(O)c(OC)c1` was tested, and the T/C (dose: 12.5 mg/kg/injection, schedule: Q04DX003 (ip), vehicle: Klucel (hydroxypropylcellulose) (HPC)) was 97 % of control, the T/C (dose: 25.0 mg/kg/injection, schedule: Q04DX003 (ip), vehicle: Klucel (hydroxypropylcellulose) (HPC)) was 95 % of control and the T/C (dose: 50.0 mg/kg/injection, schedule: Q04DX003 (ip), vehicle: Klucel (hydroxypropylcellulose) (HPC)) was 94 % of control.
In the case of `O=C(Nc1ccc(F)cc1)Nc1cccc(C(F)(F)F)c1`, the T/C (dose: 50.0 mg/kg/injection, schedule: Q01DX009 (ip), vehicle: Klucel (hydroxypropylcellulose) (HPC)) is reported as 103 % of control, the T/C [1] is reported as 107 % of control and the T/C [3] is reported as 92 % of control.
For `CC(C)CCNC(=O)CS(=O)(=O)c1ccc(N)cc1`, the T/C [19] was 98 % of control, the T/C [20] was 98 % of control and the T/C [21] was 96 % of control.
